The text below walks through data of patent US20090053168A1, “TREATMENTS OF B-CELL PROLIFERATIVE DISORDERS” (priority 2007, published 2009).

One test concerns RPMI-8226 cells. Nature of the test: Anti-proliferation assay (ATPLite, 72 h), RPMI-8226. It counts as cell-based. The settings on record: combination with dexamethasone; Loewe-based Synergy Score; 72 h.
The test system of the next test is H929 cells. Nature of the test: Anti-proliferation assay (ATPLite, 72 h), H929. It counts as cell-based. To be noted: combination with dexamethasone; Loewe-based Synergy Score; 72 h.
Another test concerns KSM-12-PE cells. Nature of the test: Anti-proliferation assay (ATPLite, 72 h), KSM-12-PE. It counts as cell-based. To be noted: in combination with CGS-21680; KSM-12-PE. (ATP-based viability assays read luminescence as a measure of living cells.)
Another test concerns ANBL-6 cells. Put plainly: Anti-proliferation assay (ATPLite, 72 h), ANBL-6. It counts as cell-based. The settings on record: in combination with CGS-21680.
In another test the test system is OPM2 cells. Nature of the test: Anti-proliferation assay (ATPLite, 72 h), OPM2. To be noted: in combination with CGS-21680; OPM-8. It counts as cell-based, human.
The test system of another test is SU-DHL6 DLBCL cells. Nature of the test: Anti-proliferation assay (ATPLite, 72 h), SU-DHL6. It counts as cell-based. The settings on record: in combination with CGS-21680.
Another test has as its system EJM cells. Nature of the test: Anti-proliferation assay (ATPLite, 72 h), EJM. It counts as cell-based. To be noted: in combination with CGS-21680.
The test system of another test is Karpas 422 DLBCL cells. Put plainly: Anti-proliferation assay (ATPLite, 72 h), Karpas 422. It counts as cell-based. To be noted: in combination with CGS-21680.
Another test has as its system MM.1S cells. Nature of the test: Anti-proliferation assay (ATPLite, 72 h), MM.1S.
Another test has as its system OCI-ly10 DLBCL cells. Put plainly: Anti-proliferation assay (ATPLite, 72 h), OCI-ly10. It counts as cell-based. The settings on record: in combination with CGS-21680.
The subject of a further test is MOLP-8 cells. Put plainly: Anti-proliferation assay (ATPLite, 72 h), MOLP-8. To be noted: in combination with CGS-21680. It counts as cell-based.
The mark [1] stands for this setting: Homo sapiens, MM1.S, read-out: percent inhibition of cell proliferation.

As to `COc1cc2c(cc1OC)-c1cc(=Nc3c(C)cc(C)cc3C)n(C)c(=O)n1CC2` [Trequinsin, 2,3,6,7-tetrahydro-9,10-dimethoxy-3-methyl-2-((2,4,6-trimethylphenyl)imino)-4H-pyrimido(6,1-a)isoquinolin-4-one], the “Synergy score with dexamethasone, RPMI-8226” value with RPMI-8226 cells worked out at 5.76. In addition, the “Synergy score with dexamethasone, H929” value in the test with H929 cells was 2.68. Besides, the synergy score is given as 2.44 in the test on KSM-12-PE cells; 4.55 in the test on ANBL-6 cells; 4.74 in the test on OPM2 cells; 0.92 with SU-DHL6 DLBCL cells; 4.81 with EJM cells; 2.11 in the test with Karpas 422 DLBCL cells. Also, the synergy score with MM.1S cells (in combination with CGS-21680, MM.1S) is on record as 6.71; with OCI-ly10 DLBCL cells it was 1.64; in the test with MOLP-8 cells it was 4.7. The inhibition at 0.00462 µM in the test on MM.1S cells (setting [1]) came to 10%. Moreover, the inhibition at 0.0139 µM in the test with MM.1S cells (setting [1]) was determined as 1.4%. For the same molecule, the inhibition at 0.0416 µM with MM.1S cells (setting [1]) amounted to 5.5%. Further, in the test with MM.1S cells (setting [1]), the inhibition at 0.374 µM is -1.6%. In the test with MM.1S cells (setting [1]), the inhibition at 1.12 µM was -6.1%. In addition, the inhibition at 3.37 µM with MM.1S cells (setting [1]) was 11%. Moreover, the inhibition at 10.1 µM with MM.1S cells (setting [1]) was 33%. Moreover, the “Synergy score with dexamethasone, MM.1S” value in the test with MM.1S cells (combination with dexamethasone, Loewe-based Synergy Score, 72 h) came out at 3.21.
